This passage reports IC50 results from patent US7670613B2, “Androgen modulators” (Pfizer Inc., priority 2004, dated 2010).

Structures are written as SMILES. Where two headings read alike, the source gives them in different places.

For the experiment, the target named is T1, androgen receptor (Homo sapiens, UniProt P10275, Q868H).
T1 construct: a human breast tumor cell line expressing androgen receptor; endogenous in cells; host or cells: MDA-MB453-MMTV clone 54-19 (only the MMTV-luciferase reporter was transfected)
T1 sequence (P10275 1-920 Q868H): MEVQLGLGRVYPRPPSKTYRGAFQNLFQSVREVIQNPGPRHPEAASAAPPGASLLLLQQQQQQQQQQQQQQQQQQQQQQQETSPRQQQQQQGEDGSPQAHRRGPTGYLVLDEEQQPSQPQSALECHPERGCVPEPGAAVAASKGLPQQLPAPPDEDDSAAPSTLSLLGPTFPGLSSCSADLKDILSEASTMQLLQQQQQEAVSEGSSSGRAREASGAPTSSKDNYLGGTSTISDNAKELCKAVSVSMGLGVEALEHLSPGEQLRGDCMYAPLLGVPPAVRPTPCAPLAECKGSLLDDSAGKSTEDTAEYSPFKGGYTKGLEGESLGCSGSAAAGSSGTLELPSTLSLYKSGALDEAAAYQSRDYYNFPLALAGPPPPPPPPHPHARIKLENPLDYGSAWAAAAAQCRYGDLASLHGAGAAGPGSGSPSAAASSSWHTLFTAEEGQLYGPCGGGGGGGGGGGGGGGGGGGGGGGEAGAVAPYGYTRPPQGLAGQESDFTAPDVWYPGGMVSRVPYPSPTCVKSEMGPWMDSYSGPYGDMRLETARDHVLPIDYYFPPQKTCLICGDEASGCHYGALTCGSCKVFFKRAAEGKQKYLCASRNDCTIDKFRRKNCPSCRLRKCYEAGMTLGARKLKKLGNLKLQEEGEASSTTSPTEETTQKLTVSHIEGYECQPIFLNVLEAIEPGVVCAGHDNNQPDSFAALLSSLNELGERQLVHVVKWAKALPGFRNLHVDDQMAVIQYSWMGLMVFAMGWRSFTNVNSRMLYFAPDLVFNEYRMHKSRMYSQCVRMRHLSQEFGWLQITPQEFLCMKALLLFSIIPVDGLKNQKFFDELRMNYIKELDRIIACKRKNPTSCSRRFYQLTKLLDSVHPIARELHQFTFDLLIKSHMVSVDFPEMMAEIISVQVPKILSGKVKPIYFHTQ
Description: AR antagonist cell assay (MDA-MB453-MMTV clone 54-19, luciferase reporter). It is filed as cell-based. Particulars: 100 pM DHT, 17 hr, mean of multiple tests. On the procedure: The compounds ability to antagonize the effects of androgen on the androgen receptor were determined in a whole cell assay as described immediately below.
Experimental Procedure for AR Antagonist Cell Assay
This cell line is a stable transfected cell line with MDA-MB453 cell background (a human breast tumor cell line expressing androgen receptor). A MMTV minimal promoter containing ARE was first cloned in front of a firefly luciferase reporter gene. Then the cascade was cloned into transfection vector pUV120puro. Electroporation method was used for transfecting MDA-MB-453 cell. Puromycin resistant stable cell line was selected.
Cell Culture Media and Reagents:
Culture medium: DMEM (high glucose, Gibco cat #: 11960-044), 10% FBS, and 1% L-glutamine
Plating medium: DMEM (phenol red free), 10% charcoal treated HyClone serum, 1% L-glutamine
Assay medium: DMEM (phenol red free), 1% charcoal treated HyClone serum, 1% L-glutamine, and 1% penicillin/streptomycin
3× luciferase buffer: 2% beta-mercaptoethanol, 0.6% ATP, 0.0135% luciferine in cell lysis buffer
• 1. Cells are maintained in culture medium, splitting cells when they reach 80-90% confluence • 2. To test compounds, 10,000 cells/well are plated to opaque 96 cell culture plate in 100 ul/well plating medium, culture for overnight at 37° C. in cell culture incubator • 3. Carefully remove plating medium, then add 80 ul/well of pre-warmed assay medium, add 10 ul/well testing compound (final concentration at) 1000 nM, 200 nM, 40 nM, 8 nM, 1.6 nM, and 0.32 nM), incubate at 37° C. for 30 minutes • 4. Add 10 ul/well freshly prepared DHT (final concentration at 100 pM) to each well, incubate at 37° C. for 17 hr (overnight) • 5.
The results are reported as the mean of multiple tests as described below (the numbers of tests are indicated in the footnote). N.D. denotes that the compound was not tested.
For orientation: In a reporter assay the amount or activity of a reporter protein is the signal.

Where [1] appears, read: AR Cell IC50, MDA-MB453-MMTV clone 54-19 cells.

In the case of `N#Cc1ccc(O[C@@H]2CCCC[C@H]2C#N)cc1C(F)(F)F` (single isomer, unassigned) [Example 72, (trans)-(−)-4-(2-Cyano-cyclohexyloxy)-2-trifluoromethyl-benzonitrile], half-maximal inhibition under setting [1] (IC50) was put at 12 nM.
For the compound `N#Cc1ccc(O[C@@H]2CCCCC2C#N)cc1C(F)(F)F` (stereo in doubt) [Example 14, -4-(2-Cyano-cyclohexyloxy)-2-trifluoromethyl-benzonitrile], the IC50 (in general, the concentration that gives 50% inhibition) under setting [1] came to 13 nM.
Turning to `CC1CCCCC1Oc1ccc(C#N)c(C(F)(F)F)c1` (stereo not drawn) [Example 8, 4-(2-Methyl-cyclohexyloxy)-2-trifluoromethyl-benzonitrile], the IC50 (MDA-MB453-MMTV clone 54-19 cells, read-out: AR Cell IC50) turned out to be 494 nM.
